Data reported in BigSolDB 2.1.

O=C(O)c1cc([N+](=O)[O-])cc([N+](=O)[O-])c1O
solubility (mole fraction)
Settings | 278.15 K | 283.15 K | 288.15 K | 293.15 K | 298.15 K | 303.15 K | 308.15 K | 313.15 K | 318.15 K | 323.15 K
in 1,4-dioxane | – | – | 0.044 | 0.0495 | 0.0554 | 0.0622 | 0.0695 | 0.0778 | 0.0877 | 0.0994
in DMF | 0.0853 | 0.0951 | 0.107 | 0.119 | 0.135 | 0.152 | 0.171 | 0.19 | 0.214 | 0.241
in DMSO | – | – | – | 0.0749 | 0.0869 | 0.0999 | 0.114 | 0.13 | 0.149 | 0.172
in NMP | 0.0924 | 0.103 | 0.116 | 0.13 | 0.146 | 0.166 | 0.185 | 0.207 | 0.234 | 0.264
in acetonitrile | 0.0108 | 0.0125 | 0.0149 | 0.0177 | 0.0209 | 0.0248 | 0.029 | 0.0349 | 0.0411 | 0.0485
in cyclohexane | – | 0.00292 | 0.0036 | 0.00449 | 0.00558 | 0.00686 | 0.00836 | 0.0104 | 0.0128 | 0.0156
in ethanol | 0.0465 | 0.0518 | 0.0582 | 0.0659 | 0.0756 | 0.0862 | 0.0977 | 0.11 | 0.124 | 0.14
in ethyl acetate | 0.046 | 0.0501 | 0.0554 | 0.0619 | 0.0687 | 0.0771 | 0.0858 | 0.0966 | 0.109 | 0.122
in ethylene glycol | 0.0245 | 0.0277 | 0.0316 | 0.0365 | 0.0415 | 0.0476 | 0.054 | 0.062 | 0.0709 | 0.082
in isobutanol | 0.0139 | 0.0161 | 0.0198 | 0.0244 | 0.0295 | 0.0358 | 0.0439 | 0.0506 | 0.0589 | 0.0712
in isopropanol | 0.0262 | 0.03 | 0.0348 | 0.0402 | 0.0463 | 0.053 | 0.0608 | 0.0702 | 0.0808 | 0.0944
in n-butanol | 0.0116 | 0.0141 | 0.0172 | 0.0199 | 0.024 | 0.0301 | 0.0345 | 0.0424 | 0.049 | 0.0592
in n-propanol | 0.0364 | 0.0403 | 0.0456 | 0.0521 | 0.0597 | 0.068 | 0.0769 | 0.0866 | 0.0972 | 0.111
in water | 0.000646 | 0.000779 | 0.000964 | 0.0012 | 0.00145 | 0.00171 | 0.00198 | 0.00245 | 0.00301 | 0.00381
